# Molecular target: T1, reTAPON1-LIKE (Trichoderma atroviride, UniProt A0A4D6GQM1)
# T1 construct: 30-aa signal peptide removed (438-residue ORF, 1317 bp), N-terminal GST tag kept (pGEX-4T-1), E. coli Origami B (DE3), about 71 kDa fusion
# Type: biochemical
# Settings: 25 °C
row,Compound,Km [µM]
1,CNC(=O)CSP(=O)(OC)OC [Omethoate],790 ± 120
2,CCOP(=O)(OCC)Oc1nc(Cl)c(Cl)cc1Cl [Chlorpyrifos-oxon],320 ± 50
3,COC(=O)C=C(C)OP(=O)(OC)OC [Mevinphos],440 ± 40
4,"COP(=O)(OC)OC=C(Cl)Cl [Dichlorvos, 2,2-dichlorovinyl dimethyl phosphate]",230 ± 20
5,CCOC(=O)CC(SP(=O)(OC)OC)C(=O)OCC (centres unmarked) [Malaoxon],720 ± 10

# Source: article doi:10.1101/416081v1 (biorxiv, 2018)
